This note sets out measurements from US20050255537A1, “Method for monitoring treatment with a parathyroid hormone” (priority 1999, published 2005).

Assay [1] deals with BSAP and PICP serum levels, NTX urine levels. The assay can be described thus: Example 2 clinical trial of rhPTH(1-34) plus hormone replacement therapy vs HRT: bone markers. Format: in vivo, human. The conditions noted are these: 40 μg/day PTH plus HRT. As to the method: • Number of Subjects: • rhPTH(1-34) plus hormone replacement therapy (HRT) (estrogen±progesterone): 122 enrolled, 91 finished. • Control, hormone replacement therapy (estrogen±progesterone) without PTH: 125 enrolled, 105 finished. • Diagnosis and Inclusion Criteria: Women aged 62±8 years, postmenopausal for 15±8 years, selected for a baseline spine bone mineral density of 0.9±0.15 and a T value of −1.8. • Dosage and Administration: • Test Product (blinded) • rhPTH(1-34): 40 μg/day, given subcutaneously plus hormone replacement therapy (estrogen±progesterone). Subjects continued their prestudy hormone replacement therapy, maintained an HRT regimen consistent with local medical practices, took continuous/combined estrogen and progestin therapy using oral Premarin (0.625 mg/day) and oral Provera (2.5 mg/day) (intact uterus), or took estrogen therapy using oral Premarin (0.625 mg/day) (without intact uterus). • Reference (Control) Therapy (Blinded) • Hormone replacement therapy (estrogen±progesterone). Subjects continued their prestudy hormone replacement therapy, maintained an HRT regimen consistent with local medical practices, took continuous/combined estrogen and progestin therapy using oral Premarin (0.625 mg/day) and oral Provera (2.5 mg/day) (intact uterus), or took estrogen therapy using oral Premarin (0.625 mg/day) (without intact uterus). • Duration of Treatment: • rhPTH(1-34): up to 18 months • Control: up to 18 months • Criteria for Evaluation: Spine x-ray, serum biological makers (calcium, bone-specific alkaline phosphatase procollagen I carboxy-terminal propeptide); urine markers (calcium, N-telopeptide, fee deoxypyridinoline); 1,25-dihydroxyvitamin D; bone mineral density: spine, hip, wrist, and total body.
Measures of BSAP, PICP, and NTX levels were determined for each patient through the course of therapy generally according to methods described above in Example 1.

The subject of a further assay is PICP, BSAP, NTX, DPD. Kind of assay: Example 4 population pharmacodynamic models of biochemical markers (PICP, BSAP, NTX, DPD). It is filed as in vivo, human. An excerpt: Population pharmacodynamic models were developed individually for total lumber spine BMD, femoral neck BMD, procollagen 1 carboxy-terminal propeptide (PICP), bone specific alkaline phosphate (BSAP), urinary N-telopeptide (NTX), and urinary free deoxypyridinoline (DPD). These treatment-response models characterized change in the pharmacodynamic endpoints and identified significant patient factors influencing response to therapy.
The time course of biochemical marker response to LY333334 dose was extensively evaluated as part of the overall population pharmacodynamic analyses. Pharmacodynamic models were developed for four biochemical markers: PICP and BSAP (biochemical measures of bone formation); NTX and […] (biochemical measures of bone resorption). Patient-specific factors that explained some of the variability of each model were identified and included in the model. As an additional evaluation, the relationship between LY333334 exposure and PICP response was modeled. Finally, the biochemical markers were evaluated as potential indicators of response to therapy by modeling the relationship between a change in the biochemical endpoint after 1 month of treatment and the increase in spine and femoral neck BMD after 21 months of treatment. […] Additional patient-specific factors were identified, which further decreased the variability in this predictive model.
An extensive investigation was undertaken to evaluate the time course of biochemical markers of bone formation (PICP and BSAP) and resorption (NTX and DPD) during LY333334 therapy. The population pharmacodynamic evaluation of these biochemical markers included data from approximately 340 patients randomly assigned to receive LY333334 40 μg/day (n≅170) or LY333334 20 μg/day (n≅170). […] Pharmacodynamic models based on linear, exponential, and spline functions of time were evaluated. […] These models reflect the complex time course of change in the underlying processes of bone formation and bone resorption occurring throughout the skeleton in response to the anabolic action induced by LY333334.

Where [2] appears, read: about 5-6 weeks following termination (18 months).

`CC[C@H](C)[C@H](NC(=O)[C@H](CCC(=O)O)NC(=O)[C@H](CO)NC(=O)[C@@H](NC(=O)[C@@H](N)CO)C(C)C)C(=O)N[C@@H](CCC(N)=O)C(=O)N[C@@H](CC(C)C)C(=O)N[C@@H](CCSC)C(=O)N[C@@H](Cc1cnc[nH]1)C(=O)N[C@@H](CC(N)=O)C(=O)N[C@@H](CC(C)C)C(=O)NCC(=O)N[C@@H](CCCCN)C(=O)N[C@@H](Cc1cnc[nH]1)C(=O)N[C@@H](CC(C)C)C(=O)N[C@@H](CC(N)=O)C(=O)N[C@@H](CO)C(=O)N[C@@H](CCSC)C(=O)N[C@@H](CCC(=O)O)C(=O)N[C@@H](CCCN=C(N)N)C(=O)N[C@H](C(=O)N[C@@H](CCC(=O)O)C(=O)N[C@@H](Cc1c[nH]c2ccccc12)C(=O)N[C@@H](CC(C)C)C(=O)N[C@@H](CCCN=C(N)N)C(=O)N[C@@H](CCCCN)C(=O)N[C@@H](CCCCN)C(=O)N[C@@H](CC(C)C)C(=O)N[C@@H](CCC(N)=O)C(=O)N[C@@H](CC(=O)O)C(=O)N[C@H](C(=O)N[C@@H](Cc1cnc[nH]1)C(=O)N[C@@H](CC(N)=O)C(=O)N[C@@H](Cc1ccccc1)C(=O)O)C(C)C)C(C)C` [LY333334]: the “percent change in PICP serum levels during treatment” value in assay [1] (FIG. 5) is recorded as “reached a peak within about one or two months”. Moreover, the “percent change in NTX urine levels during treatment” value in assay [1] (FIG. 6) was “increased steadily until about 6 months after treatment initiation and remained at about the same high level at 12 months”. Besides, in assay [1] (setting [2]), the “BSAP level after termination of PTH treatment” value is “maintained an elevated level”; the “PICP levels after termination of PTH treatment” value was “PICP levels were the same as HRT controls”; the “percent change in NTX levels after termination of PTH treatment” value was “had declined and approached levels similar to those observed in the control group”. Also, in the assay on PICP, BSAP, NTX, DPD (20 and 40 μg/day), the “time of BSAP peak response after initiation of treatment” value worked out at 6 months, the “time of maximum PICP” value is on record as at most 1 month and the “time of peak urinary DPD concentrations after initiation of treatment” value amounted to 6 months. Besides, in the assay with PICP, BSAP, NTX, DPD (40 vs 20 μg/day), the “BSAP response in 40 μg/day group greater than 20 μg/day group” value is 73%, the “DPD response in 40 μg/day group greater than 20 μg/day group” value is listed as 83%, the “NTX response in 40 μg/day group greater than 20 μg/day group” value was determined as 87% and the “PICP response in 40 μg/day group greater than 20 μg/day group” value is 94%. In the assay on PICP, BSAP, NTX, DPD (about 1 month of therapy), the “minimum increase in PICP level in the entire study population” value was “at least 20 pM”. Also, in the assay on PICP, BSAP, NTX, DPD (last observation while on therapy), the “time of peak urinary NTX excretion” value is given as 12 months.
